For experiment [1], the system named is B. subtilis spores. Briefly: MTT assay of metabolic activity, spores. The note with it: LB broth 37° C. 8 h after treatment at RT or 70° C. (FIG. 4, panels E, F). It is filed as cell-based, Bacillus subtilis. How it is done: As an additional confirmation of results, the presence of a metabolically active fraction of cells was investigated using MTT assay. After incubation of spores with various concentrations of CSA-13 in a non-growing medium (PBS), 20 μL of MTT solution (thiazolyl blue tetrazolium bromide, Sigma-Aldrich, St Louis, Mo., USA, 5 mg/mL) and 100 μL of LB medium broth were added. Incubation at 37° C. was continued for 8 h. Medium was removed, and 100 μL of dimethyl sulfoxide solution (DMSO) was added to dissolve the MTT precipitate. Cells were allowed to stand at room temperature (RT) for 10 min with shaking. Absorbance values were detected at a wavelength of 570 nm using a microplate spectrophotometer. Absorbance values obtained in control spores cultures (without a tested agent) were taken as 100%. As positive controls, 1 M HCl (for spore treatment at RT) and 70% ethanol (for spore treatment at 70° C.) were employed. The average of all the experiments was presented in comparison to the level of metabolic activity detected in non-treated B. subtilis suspension. […]
The results of viability testing largely correlate with data obtained in the MTT assay. […] The incubation of non-treated spores in LB broth at 37° C. results in reactivation of metabolic activity confirmed by increasing formazan reduction and subsequent rise in an absorbance value. […]
(Formazan colour is commonly taken as a measure of viable cells.)

Experiment [2] has as its system B. subtilis spores. As to the kind of experiment: Spore germination by optical density (OD600). It is filed as cell-based, Bacillus subtilis. The note with it: 10 to 100 μg/mL, 1 h at RT in PBS, then LB broth, OD600 for 60 min (FIG. 5, panel A). How it is done:
To further assess germination processes in antibiotic-treated samples, a spectrophotometric method was employed. Isolated spores were incubated at RT for 1 h in PBS with concentrations of CSA-13 ranging from 10 to 100 μg/mL. Then 100 μL of LB broth was added, and optical densities at 600 nm (OD600) were monitored, using a microplate reader (Synergy H1, BioTek, VT, USA), for 60 min. FIG. 5 includes graphs showing inhibitory effect of CSA-13 on B. subtilis spore germination assessed by the measurement of optical density for spore suspension with increasing concentrations of the antibiotic (10 μg/mL—white squares; 20 μg/mL—white diamonds; 50 μg/mL—black triangles; 100 μg/mL—black diamonds), when compared with control (CT—grey circles) (panel A). Release of rhodamine 6G from external layers of B. subtilis spores after treatment with 20 μg/ml of CSA-13 (black square) and vancomycin (VAN; grey square) (panel B).

Experiment [3] concerns membrane of vegetative and spore form of B. subtilis. As to the kind of experiment: Affinity of FITC-labeled CSA-13 to cell membranes (fluorimetric). The experiment is classed as binding, Bacillus subtilis. The note with it: FITC-labeled CSA-13, 20 μg/mL. The protocol:
To assess the affinity/binding of CSA-13 for the outer bacterial membrane, CSA-13 was labeled with fluorescein isothiocyanate (FITC) and added to the suspensions of vegetative cell and spores, to a final concentration of 20 μg/mL. […] To evaluate whether affinity of CSA-13 is influenced by the surface electrical properties of cells, zeta potentials of vegetative bacteria and spore suspensions were assessed using Zetasizer Nano ZS (Malvern Instruments, United Kingdom). Bacterial and spore cultures were brought to OD600˜0.1 in PBS buffer (pH=7). To evaluate the effect of the ceragenin on zeta potential value, CSA-13 was added at the concentration of 100 μg/mL to the spore suspension, incubated for 15 minutes and transferred to a cuvette. Measurements were conducted at 25° C.

The test system of experiment [4] is B. subtilis spores. As to the kind of experiment: Confocal Raman spectroscopy of single spores (CaDPA content). The experiment is classed as cell-based, Bacillus subtilis. The note with it: 50 μg/mL and 200 μg/mL. How it is done: For Raman spectroscopy analyses, spores of B. subtilis were suspended in 100 μL of distilled water and treated with CSA-13 (50 μg/mL and 200 μg/mL) for 1 hour at RT and 70° C. Samples were transferred to polished calcium fluoride (CaF2) optical windows (Crystran, United Kingdom) and dried at 60° C. Raman spectra were recorded using a Renishaw InVia Raman spectrometer equipped with an optical confocal microscope, an air-cooled laser emitting at 532 nm, and an CCD detector thermoelectrically cooled to −70° C. A dry Leica N PLAN EPI (100×, NA 0.85) objective was used. The power of the laser at the sample position was ca. 1.5 mW. A sum of 20 scans with integration time of 20 seconds and a resolution of 0.5 cm^−1 was collected. The spectrometer was calibrated using the Raman scattering line generated by an internal silicon plate. A laser spot (diameter of ca. 760 nm) was focused on a single spore and then the measurement was performed. All spectra were smoothed and baseline corrected. Results from one representative experiment are provided.
FIGS. 7 and 8 show Raman spectra collected from B. subtilis spores incubated at RT and at 70° C., respectively, with corresponding confocal microscopy images. Panels A1 and A2—control sample, panels B1 and B2—50 μg/mL of CSA-13, panels C1 and C2—200 μg/mL of CSA-13. Asterisks denote CaDPA bands well separated from bands of spore biocomponents. […]

Experiment [5] has as its system external layers of B. subtilis spores. As to the kind of experiment: Release of rhodamine 6G from the surface of spores. It is filed as cell-based, Bacillus subtilis. The protocol: The release of rhodamine 6G absorbed on the surface of Bacillus spores was evaluated using the Maesaki method (Maesaki, S., et al., Rhodamine 6G efflux for the detection of CDR1-overexpressing azole-resistant Candida albicans strains. J Antimicrob Chemother, 1999. 44(1): p. 27-31) with minor modifications. To stain cells with rhodamine 6G, the dye was added to a final concentration of 10 μM for 10 min. Non-absorbed dye was removed by centrifugation for 2 min at 10 000×g. Next, stained cells were washed and CSA-13 at 20 μg/mL was added. After incubation for 10, 30, 60 and 120 min, supernatant was collected by centrifugation and absorption at 527 nm was measured. The total concentration of rhodamine 6G released from the surface of spores was calculated using a standard concentration curve. The level of antibiotic-induced release was presented as the difference between the concentration of rhodamine 6G released from treated spores and control samples.

Experiment [6] deals with vegetative cells of B. subtilis. As to the kind of experiment: MTT assay of metabolic activity, vegetative cells. It is filed as cell-based, Bacillus subtilis. The note with it: RT (FIG. 4, panel D). How it is done: As an additional confirmation of results, the presence of a metabolically active fraction of cells was investigated using MTT assay. After incubation of spores with various concentrations of CSA-13 in a non-growing medium (PBS), 20 μL of MTT solution (thiazolyl blue tetrazolium bromide, Sigma-Aldrich, St Louis, Mo., USA, 5 mg/mL) and 100 μL of LB medium broth were added. Incubation at 37° C. was continued for 8 h. Medium was removed, and 100 μL of dimethyl sulfoxide solution (DMSO) was added to dissolve the MTT precipitate. Cells were allowed to stand at room temperature (RT) for 10 min with shaking. Absorbance values were detected at a wavelength of 570 nm using a microplate spectrophotometer. Absorbance values obtained in control spores cultures (without a tested agent) were taken as 100%. As positive controls, 1 M HCl (for spore treatment at RT) and 70% ethanol (for spore treatment at 70° C.) were employed. The average of all the experiments was presented in comparison to the level of metabolic activity detected in non-treated B. subtilis suspension. Incubation of both vegetative cells and spores of B. subtilis was performed for 15, 30, 60, 120 and 240 min.

For experiment [7], the system named is vegetative form of B. subtilis. Briefly: Viability (CFU) assay, vegetative form. The note with it: RT, incubation time 240 min. The experiment is classed as cell-based, Bacillus subtilis ATCC 6051. The protocol:
(§1) A viability assay of bacterial spores in the presence of a CSA compound was performed according to the protocol presented by Ghosh and Setlow. Ghosh, S. and P. Setlow, Isolation and characterization of superdormant spores of Bacillus species. J Bacteriol, 2009. 191(6): p. 1787-97. Spore suspensions in PBS were brought to […] and incubated with various concentrations of CSA-13. To evaluate the effect of treatment time on the killing properties of the antibiotic, incubation was performed for 15, 30, 60, 120 and 240 min, respectively. To investigate the effect of temperature on sporicidal properties, incubation at room temperature (RT) and at 70° C. was performed. After incubation, the plates were transferred to ice and suspensions were diluted 10- to 1000-fold in PBS. Then, 10 μL aliquots were spotted on LB agar plates for overnight culture at 37° C. and CFUs were determined. Cell survival, after exposure to the tested agent, was expressed as percent of control.
FIG. 4 includes graphs showing decreased survival of CSA-13-treated B. subtilis spores. FIG. 4, panels A-C show decline in the survival of B. subtilis culture after incubation with various concentrations of CSA-13. FIG. 4, panels D-F show Level of metabolic activity observed in ceragenin (CSA)-treated spore samples exposed to appropriate environmental conditions when compared to untreated control. […]

The subject of experiment [8] is B. subtilis spores. Briefly: Viability (CFU) assay of bacterial spores. The experiment is classed as cell-based, Bacillus subtilis ATCC 6051. How it is done: (§2) This example studied the ability of a CSA compound (e.g., CSA-13) to kill sporulated bacterial, namely Bacillus subtilis ATCC 6051 spores. To prepare Bacillus subtilis ATCC 6051 spores, bacteria were grown on LB (Luria-Bertani) agar plates without antibiotics at 37° C. for 72 h. Bacteria were harvested, re-suspended in ice-cold phosphate buffered saline (PBS) solution and purified by triple centrifugation (12 000×g, 10 min, 4° C.). The spore suspension was heat treated (75° C., 15 min) to remove remaining vegetative cells, cooled, stored in water at 4° C. and protected from light until analysis. […] Zhang, P., P. Setlow, and Y. Li, Characterization of single heat-activated Bacillus spores using laser tweezers Raman spectroscopy. Opt Express, 2009. 17(19): p. 16480-91. All spores used in this work were free of vegetative cells (>98%), as determined by staining cells using Schaeffer and Fulton Spore Stain Kit (Sigma-Aldrich, St Louis, Mo., USA). Additionally, to confirm the formation of spores during preparation, purified samples were investigated using transmission electron microscopy (TEM, Tecnai G2 X-TWIN, FEI, USA).
as §1
FIG. 4 includes graphs showing decreased survival of CSA-13-treated B. subtilis spores. FIG. 4, panels A-C show decline in the survival of B. subtilis culture after incubation with various concentrations of CSA-13. FIG. 4, panels D-F show Level of metabolic activity observed in ceragenin (CSA)-treated spore samples exposed to appropriate environmental conditions when compared to untreated control. Samples were incubated at RT (panels A, D for vegetative form and panels B, E for spore form, respectively) and at 70° C. (panels C, F) for 15 (white squares), 30 (grey circles), 60 (black circles), 120 (white triangles) and 240 (grey diamonds) minutes. […]

For experiment [9], the system named is B. subtilis spores. As to the kind of experiment: TEM of treated spores (morphology, membrane permeability). The note with it: 50 μg/mL and 200 μg/mL, 1 hour, RT and 70° C. (FIG. 3, panels C-F). It is filed as cell-based, Bacillus subtilis. How it is done:
as §2
To visualize alterations in morphology and membrane permeability of treated spores, a suspension of spores (OD600˜0.5) in distilled water was treated with CSA-13 at concentrations of 50 μg/mL and 200 μg/mL and incubated for 1 hour at RT and 70° C. […]

For the compound `CCCCCCCCNCCC[C@@H](C)[C@H]1CC[C@H]2[C@@H]3[C@H](OCCCN)C[C@@H]4C[C@H](OCCCN)CC[C@]4(C)[C@H]3C[C@H](OCCCN)[C@]12C` [CSA-13], in the experiment on B. subtilis spores [1], the “metabolic activity of treated spores after exposure to favorable conditions” value is listed as “only a small fraction of spores was able to resume proper metabolic activity”. Further, the “effect on spore germination (OD600)” value with B. subtilis spores [2] is “strong interference in the germination”. Further, the “affinity for the external layers of spores” value in [3] is listed as “high affinity”. The “affinity for spores versus vegetative form” value in [3] (recorded 15 min (FIG. 6, panel A)) was “greater affinity for the spores than for the vegetative form of bacteria”. In addition, the “percentage of CaDPA negative spores, 70° C. versus room temperature” value in the experiment with B. subtilis spores [4] (1 hour (FIG. 8)) is “greater compared to sample treated at room temperature”. The “number of CaDPA positive spores after treatment” value in the experiment with B. subtilis spores [4] (1 hour, versus untreated) is reported as “significant reduction of the number of CaDPA positive cells”. Also, in experiment [5] (20 μg/mL of each), the “rhodamine 6G release compared with vancomycin” value is listed as “significantly higher than that of vancomycin”. Also, the “release of rhodamine 6G from spores” value in experiment [5] (20 μg/mL, 10-120 min (FIG. 5, panel B)) is recorded as “resulted in the release of dye”. The “concentration at which vegetative cells showed no detectable metabolism” value in [6] came to 20 µg/mL. Further, in experiment [7], the “concentration at which all vegetative cells were killed” value is 15 µg/mL. Also, in the experiment with B. subtilis spores [8] (70° C. versus room temperature), the “effect of elevated temperature on sporicidal activity” value is listed as “elevated temperature significantly intensifies the activity”. Also, the “concentration killing bacterial spores” value in the experiment on B. subtilis spores [8] (70° C., incubation 120 and 240 minutes) amounted to 5 µg/mL. For the same compound, the “concentration sufficient to inhibit the growth of spores” value with B. subtilis spores [8] (70° C., incubation 15 min (FIG. 4, panel C)) was found to be 20 µg/mL. Also, the “concentration giving total inhibition of spore growth potential” value in the experiment with B. subtilis spores [8] (RT, regardless of incubation time (15-240 min) (FIG. 4, panel B)) was 100 µg/mL. Moreover, the “change of spore structure in TEM micrographs” value with B. subtilis spores [9] is listed as “disruption of spore membrane architecture”.

(Values after patent publication US10959433B2, “Use of cationic steroidal antimicrobials for sporicidal activity” (BRIGHAM YOUNG UNIVERSITY, priority 2017, dated 2021).)
